Experimental data from patent US20240209011A1, “HETEROAROMATIC PHOSPHONIUM SALTS FOR TREATING CANCER” (FLORATEK PHARMA S.A., priority 2021, published 2024).

How the values were obtained:
ADCK3 = target: T1, ADCK3 (Homo sapiens, UniProt Q8NI60); test: KINOMEscan competition binding assay, Kd; conditions: 11-point 3-fold dilution series
T1 construct: purchased Eurofins (KINOMEscan); host or cells: T7 phage in BL21-derived E. coli, or HEK-293
Method: Selected compounds were screened for kinase inhibition using the KINOMEscan™ assay (Eurofins) which is based on a competition binding assay that quantitatively measures the ability of a compound to compete with an immobilized, active-site directed ligand. The assay was performed by combining three components: DNA-tagged kinase; immobilized ligand; and the test compound. The ability of the test compound to compete with the immobilized ligand was measured via quantitative PCR of the DNA tag.
Kinase-tagged T7 phage strains were prepared in an E. coli host derived from the BL21 strain. E. coli were grown to log-phase and infected with T7 phage and incubated with shaking at 32° C. until lysis. The lysates were centrifuged and filtered to remove cell debris. The remaining kinases were produced in HEK-293 cells and subsequently tagged with DNA for qPCR detection. Streptavidin-coated magnetic beads were treated with biotinylated small molecule ligands for 30 minutes at room temperature to generate affinity resins for kinase assays. The liganded beads were blocked with excess biotin and washed with blocking buffer (SeaBlock (Pierce), 1% BSA, 0.05% Tween 20, 1 mM DTT) to remove unbound ligand and to reduce non-specific binding. Binding reactions were assembled by combining kinases, liganded affinity beads, and test compounds in 1× binding buffer (20% SeaBlock, 0.17×PBS, 0.05% Tween 20, 6 mM DTT). Test compounds were prepared as 111× stocks in 100% DMSO. Kds were determined using an 11-point 3-fold compound dilution series with three DMSO control points. All compounds for Kd measurements are distributed by acoustic transfer (non-contact dispensing) in 100% DMSO. The compounds were then diluted directly into the assays such that the final concentration of DMSO was 0.9%. All reactions performed in polypropylene 384-well plate. Each was a final volume of 0.02 ml. The assay plates were incubated at room temperature with shaking for 1 hour and the affinity beads were washed with wash buffer (1×PBS, 0.05% Tween 20). The beads were then resuspended in elution buffer (1×PBS, 0.05% Tween 20, 0.5 μM nonbiotinylated affinity ligand) and incubated at room temperature with shaking for 30 minutes. The kinase concentration in the eluates was measured by qPCR.
Binding constants (Kds) were calculated with a standard dose-response curve using the Hill equation: Response=Background+[Signal−Background/i+(Kd^Hill Slope/Dose^Hill Slope)]. The Hill Slope was set to −1. Curves were fitted using a non-linear least square fit with the Levenberg-Marquardt algorithm.

endometrial PDX = test: Activity against endometrial PDX; type: cell-based; conditions: endometrial PDX growth; text summary of Table 9
Method: (§1) PDX-derived cell cultures were obtained from tumors explanted from mice and isolated by mechanical and enzymatic dissociation. […] Cells were harvested and seeded in 96-wells plates at a density of 1.25 to 5×10^3 cells/well for cytotoxicity assays. Cells were incubated 48 h at 37° C. prior to addition of test molecules and vehicle (DMSO, 0.1%) at desired final concentrations. Cell viability was assessed before drugs' addition (To) and 5 days after test molecules addition by measuring ATP cell content using CellTiter-Glo® Luminescent Cell Viability Assay (Promega) according to the manufacturer's instructions. Luciferase activity was measured on a luminometer (PerkinElmer® EnVision™). Each concentration of compounds was tested in triplicate.
(§2) Viability was calculated as a percentage of ATP value compared to vehicle treated controls.
(§3) For PDX primary cell cultures, the tumour tissue was washed with PBS containing antibiotic-antimycotic and non-tumour tissue and necrotic tumour tissues were separated. The tumour tissue was transferred to a new dish and cut into 1-2 mm^3 fragments, resuspended in RPMI-1640 medium and centrifuged at 1,200 rpm for 6 min at room temperature. The pelleted material was resuspended with 15 mL of Tumour Cell Digestion Solution and incubated at 37° C. for 1 hour with agitation. Following further addition of media, centrifugation and passage through a […] cell strainer, the homogenous cell mixture was layered onto 15 mL of Ficoll-Paque PLUS in a 50 mL conical tube and centrifuged for 15 min at 1,600 rpm. The interface cells were collected, washed with media, separated by centrifugation at 1,200 rpm. The cell pellet was resuspended in serum free media supplemented with growth factors. 10,000 cells/wells were plated in a 96 well plate and incubated at 37° C., 5% CO2, 95% air and 100% relative humidity overnight. The cytotoxicity assay was conducted as above. IC50 values represent absolute IC50.

[1] = test system: SCLC doxorubicin resistant cell line H69AR; test: Cell viability assay (CellTiter-Blue/CellTiter-Glow); type: cell-based; conditions: Homo sapiens, absolute IC50, 72 h
Method in brief: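 Tumour cells were plated at 4,000-20,000 cells/well (up to 60,000 for haematological lines) in RPMI 1640 or DMEM with 10% FCS, then exposed 24 h later to compounds for 72 h at 37 °C. Viability was read by CellTiter-Blue fluorescence or CellTiter-Glo luminescence; absolute IC50 taken at T/C=50%.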

pancreatic PDX = test: Activity against pancreatic PDX; type: cell-based; conditions: pancreatic PDX growth; summary of Table 20
Method: as §1, §2, §3

stomach PDX = test: Activity against stomach PDX; type: cell-based; conditions: stomach PDX growth; summary of Table 23
Method: as §1, §2, §3

T1 sequence (Q8NI60 163-647): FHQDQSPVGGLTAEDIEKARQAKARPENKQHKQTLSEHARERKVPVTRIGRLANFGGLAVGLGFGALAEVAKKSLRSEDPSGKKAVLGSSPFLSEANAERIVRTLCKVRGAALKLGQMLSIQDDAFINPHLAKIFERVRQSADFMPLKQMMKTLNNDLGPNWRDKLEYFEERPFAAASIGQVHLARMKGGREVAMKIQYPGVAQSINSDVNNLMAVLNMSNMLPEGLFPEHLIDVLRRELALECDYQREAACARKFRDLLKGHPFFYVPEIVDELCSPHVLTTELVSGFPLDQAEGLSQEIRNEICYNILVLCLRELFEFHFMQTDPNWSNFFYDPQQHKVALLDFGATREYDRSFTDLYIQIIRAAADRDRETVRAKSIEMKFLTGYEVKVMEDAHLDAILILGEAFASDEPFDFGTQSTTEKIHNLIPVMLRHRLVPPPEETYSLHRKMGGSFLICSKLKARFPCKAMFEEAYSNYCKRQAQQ

SMILES | Kd (ADCK3) [µM] | IC50 (endometrial PDX) [µM] | IC50 [1] [µM] | IC50 (pancreatic PDX) [µM] | IC50 (stomach PDX) [µM]
O=c1cc(-c2ccc(CCCC[P+](c3ccccc3)(c3ccccc3)c3ccccc3)cc2)oc2c(O)c(O)ccc12 [SND118, 4-[4-(7,8-dihydroxy-4-oxo-chromen-2-yl)phenyl]butyltriphenyl-phosphonium bromide] | 1.5 |  |  |  | 
O=c1cc(-c2ccc(CCCC[P+](c3ccccc3)(c3ccccc3)c3ccccc3)cc2)oc2c3c(ccc12)OCO3.[Br-] [SND123, 4-[4-(6-oxo-[1,3]dioxolo[4,5-h]chromen-8-yl)phenyl]butyl-triphenylphosphonium bromide] | 0.82 | < 20 | 11.8 | < 20 | < 20
CCNC(=O)Oc1ccc2c(=O)cc(-c3ccc(CCCC[P+](c4ccccc4)(c4ccccc4)c4ccccc4)cc3)oc2c1OC(=O)NCC.[Br-] [SND124, 4-[4-[7,8-Bis(ethylcarbamoyloxy)-4-oxo-chromen-2-yl]phenyl]-butyltriphenylphosphonium bromide] |  | < 20 |  | < 20 | < 20
CCNC(=O)Oc1ccc2c(=O)cc(-c3ccc(CCCC[P+](c4ccccc4)(c4ccccc4)c4ccccc4)cc3)oc2c1O.[Br-] [SND126A, 4-[4-[7-(Ethylcarbamoyloxy)-8-hydroxy-4-oxo-chromen-2-yl]phenyl]butyltriphenylphosphonium bromide] |  | < 20 |  | < 20 | < 20
COc1c(O)ccc2c(=O)cc(-c3ccc(CCCC[P+](c4ccccc4)(c4ccccc4)c4ccccc4)cc3)oc12.[Br-] [SND140, (4-(4-(7-hydroxy-8-methoxy-4-oxo-4H-chromen-2-yl)phenyl)butyl)triphenylphosphonium bromide] | 0.62 | < 20 | 14.6 | < 20 | < 20
